Earlier results, collected in patent US7452858B2, “Treatment of gestational diabetes” (Amylin Pharmaceuticals, Inc., priority 1999, dated 2008).
Where two headings read alike, the source gives them in different places. Where no end group is shown, it is not given here.

Experiments:
[1] = mice, peripheral injection
[2] = rats, intracerebroventricular injection
cloned GLP-1 receptor = conditions: transfected cells

In the case of “GLP-1 [7-36]NH2 (HAEGTFTSDVSSYLEGQAAKEFIAWLVKGR-NH2)”, the “effect on food intake” value [1] is listed as “does not inhibit food intake” and the “effect on food intake” value [2] is listed as “inhibits food intake”.
In the case of “exendin[9-39]: C-terminally truncated exendin peptide, a carboxyamidated molecule, reported antagonist of GLP-1”, the “action at the cloned GLP-1 receptor (cAMP)” value (cloned GLP-1 receptor) is listed as “antagonist”.
